Publication PMC9668969 (Nature Communications, 2022)

System: WT ELIC
Experiment: Fluorescence stopped-flow liposomal Tl+ flux assay, symmetric liposomes
Format: biochemical, Erwinia chrysanthemi
Experimental: The fluorescence sequential-mixing stopped-flow liposomal flux measurements were carried using an SX20 stopped-flow spectrofluorometer (Applied Photophysics) and Pro-Data SX software[13],[30]. 7.5 mg of the respective lipid mixture (POPC, 1:1 POPC: POPE, 1:1 POPC:POPG, 3:1 POPC:POPE, 3:1 POPC:POPG, 2:1:1 POPC:POPE:POPG) was dried in a glass vial to a thin film under a constant stream of N2. The lipids were then further dried under vacuum in a desiccator overnight. The following day the lipids were hydrated in 500 µl of reconstitution buffer (100 mM NaNO3, 10 mM HEPES, pH 7) (Buffer R), 250 µl of 75 mM 8-Aminonaphthalene-1,3,6-Trisulfonic Acid (ANTS, ThermoFisher Scientific) in buffer R, and doped with ~18 mg of CHAPS (Anatrace). The mixture was vortexed and then sonicated with heat until completely solubilized. Following the sonication, the solution was brought to RT then 3.5 µl of 6.7 mg/ml ELIC in Buffer A with 0.02% DDM was added (3 µg per mg of lipid). This combined solution was incubated at RT for 30 min, followed by the addition of 1 ml of 1:1 v/v SM-2 BioBeads in Buffer R and an additional 250 µl of 75 mM ANTS in Buffer R. This mixture was incubated at RT for 2.5 hr with gentle mixing. The liposome suspension was then extruded with an Avanti mini-extruder and 0.1 µm membrane (30×). The extruded liposomes were stored at 13 °C overnight with gentle rotation. The next day, the liposomes were diluted to 2.5 mL using assay buffer (140 mM NaNO3, 10 mM HEPES, pH 7) (Stopped-flow Buffer A), loaded into a PD-10 desalting column (Cytiva), eluted with 3 mL of Stopped-flow Buffer A and subsequently diluted 5-fold with Stopped-flow Buffer A.
Using propylamine as the agonist, the assay and analysis was carried out as previously described[13],[30]. ELIC-containing liposomes were first mixed 1:1 with Buffer A containing 2× the concentration of propylamine. After a variable delay of 10 ms to 25 s, the sample was then mixed 1:1 with a quenching buffer (90 mM NaNO3, 50 mM TlNO3, 10 mM HEPES, pH 7), and ANTS fluorescence (ex. 360 nm, fluorescence above 420 nm) was recorded for 1 s. For each delay time, 5 repeat measurements were obtained. The data were collected using Applied Photophysics Pro-Data SX software. The fluorescence quenching traces were fit to a stretched exponential (Eq. 2a) and the rate of Tl^+ influx was determined at 2 ms (Eq. 2b).2a Ft=F∞+F0−F∞⋅e^−t/τ^β 2b kt=β/τ⋅2ms/τ^(β−1) where Ft, F∞, F0 are the fluorescence at time t, final fluorescence and initial fluorescence. τ is the time constant, β the stretched exponential factor, and kt the calculated rate of Tl^+ influx at 2 ms. The time course of desensitization was also fit to a double exponential and a weighted time constant was calculated as was done for the patch-clamp data using Origin 2019b. All replicates were taken from independent samples.

CCCCCCCC/C=C\CCCCCCCC(=O)OC(COC(=O)CCCCCCCCCCCCCCC)COP(=O)(O)OCC(O)CO (stereo not drawn) [POPG, 1-palmitoyl-2-oleoyl-phosphatidylglycerol]
time constant of desensitization (25% POPG in symmetric liposomes): ~ 6 s
effect on desensitization (25–50 mol% in binary mixtures with POPC, 10 mM propylamine): slowed desensitization
time constant of desensitization (50% POPG in symmetric liposomes): ~ 12 s
